According to patent US10029984B2, “Mono- or di-substituted indole derivatives as dengue viral replication inhibitors” (Janssen Pharmaceuticals, Inc., priority 2015, dated 2018):

Tests used:
DENV-2 16681 strain = test: DENV-2 antiviral assay (eGFP-labeled virus in Vero cells); type: cell-based, Dengue virus; details: DENV-2 16681 eGFP, MOI 0.5, 3 days
Method: The antiviral activity of all the compounds of the invention was tested against DENV-2 16681 strain which was labeled with enhanced green fluorescent protein (eGPF; Table 1). The culture medium consists of minimal essential medium supplemented with 2% of heat-inactivated fetal calf serum, 0.04% gentamycin (50 mg/mL) and 2 mM of L-glutamine. Vero cells, obtained from ECACC, were suspended in culture medium and 25 μL was added to 384-well plates (2500 cells/well), which already contain the antiviral compounds. Typically, these plates contain a 4-fold serial dilution of 9 dilution steps of the test compound at 200 times the final concentration in 100% DMSO (200 nL). In addition, each compound concentration is tested in quadruplicate (final concentration range: 25 μM-0.00038 μM). Finally, each plate contains wells which are assigned as virus controls (containing cells and virus in the absence of compound), cell controls (containing cells in the absence of virus and compound) and medium controls (containing medium in the absence of cells, virus and compounds). To the wells assigned as medium control, 25 μL of culture medium was added instead of Vero cells. Once the cells were added to the plates, the plates were incubated for 30 minutes at room temperature to allow the cells to distribute evenly within the wells. Next, the plates were incubated in a fully humidified incubator (37° C., 5% CO2) until the next day. Then, DENV-2 strain 16681, labeled with eGFP, was added at a multiplicity of infection (MOI) of 0.5. Therefore, 15 μL of virus suspension was added to all the wells containing test compound and to the wells assigned as virus control. In parallel, 15 μL of culture medium was added to the medium and cell controls. Next, the plates were incubated for 3 days in a fully humidified incubator (37° C., 5% CO2). At the day of the read out, the eGFP fluorescence was measured using an automated fluorescence microscope at 488 nm (blue laser). Using an in-house LIMS system, inhibition dose response curves for each compound were calculated and the half maximal effective concentration (EC50) was determined. Therefore, the percent inhibition (I) for every test concentration is calculated using the following formula: I=100*(ST−SCC)/(SVC−SCC); ST, SCC and SVC are the amount of eGFP signal in the test compound, cell control and virus control wells, respectively. The EC50 represents the concentration of a compound at which the virus replication is inhibited with 50%, as measured by a 50% reduction of the eGFP fluorescent intensity compared to the virus control. The EC50 is calculated using linear interpolation.

in vitro = type: cell-based; details: African green monkey, CC50
Method: In parallel, the toxicity of the compounds was assessed on the same plates. Once the read-out for the eGFP signal was done, 10 μL of resazurin, a cell viability stain, was added to all wells of the 384-well plates. The resazurin assay is based on the reduction of the blue resazurin by NADH, produced by the cells, into the highly fluorescent product, resorufin. The formation of pink fluorescent resorufin is directly related to the number of viable cells in the well. The plates were incubated for an additional 5 hours in a fully humidified incubator (37° C., 5% CO2). Next, the plates were measured on an Infinite reader (Tecan) using an excitation wavelength of 530 nm. The half maximal cytotoxic concentration (CC50) was also determined, defined as the concentration required to reduce the resazurin conversion by 50% compared to that of the cell control wells. Finally, the selectivity index (SI) was determined for the compounds, which was calculated as followed: SI=CC50/EC50.

[1] = Dengue virus, DENV2, Vero, 72 h

Compound	EC50 (DENV-2 16681 strain; [1]) [nM]	CC50 (in vitro) [nM]	EC50 (DENV-2 16681 strain; listed as 5A) [nM]
COc1cc(NC(C(=O)c2c[nH]c3c(C)cc(F)cc23)c2ccc(F)cc2OC)cc(S(C)(=O)=O)c1 (racemic) [Compound 8, 2-(4-fluoro-2-methoxyphenyl)-1-(5-fluoro-7-methyl-1H-indol-3-yl)-2-((3-methoxy-5-(methylsulfonyl)phenyl)amino)ethanone]	2.8	7600	
COc1cc(NC(C(=O)c2c[nH]c3c(Cl)c(OC)ccc23)c2ccc(F)cc2OC)cc(S(C)(=O)=O)c1 (racemic) [Compound 12, 1-(7-chloro-6-methoxy-1H-indol-3-yl)-2-(4-fluoro-2-methoxyphenyl)-2-((3-methoxy-5-(methylsulfonyl)phenyl)amino)ethanone]	0.6	> 25000	
COc1cc(NC(C(=O)c2c[nH]c3cc(OC)ccc23)c2ccc(F)cc2OC)cc(S(C)(=O)=O)c1 (single isomer, unassigned) [Enantiomer 5A, 2-(4-fluoro-2-methoxyphenyl)-1-(6-methoxy-1H-indol-3-yl)-2-((3-methoxy-5-(methylsulfonyl)phenyl)amino)ethanone]		24000	70
COc1cc(NC(C(=O)c2c[nH]c3cc(F)c(F)cc23)c2ccc(F)cc2OC)cc(S(C)(=O)=O)c1 (racemic) [Compound 7, 1-(5,6-difluoro-1H-indol-3-yl)-2-(4-fluoro-2-methoxyphenyl)-2-((3-methoxy-5-(methylsulfonyl)phenyl)amino)ethanone]	1.5	5000	
COc1cc(NC(C(=O)c2c[nH]c3cc(OC)c(Cl)cc23)c2ccc(F)cc2OC)cc(S(C)(=O)=O)c1 (racemic) [Compound 16, 1-(5-chloro-6-methoxy-1H-indol-3-yl)-2-(4-fluoro-2-methoxyphenyl)-2-((3-methoxy-5-(methylsulfonyl)phenyl)amino)ethanone]	0.66	8800	
COc1cc(NC(C(=O)c2c[nH]c3c(F)c(F)ccc23)c2ccc(F)cc2OC)cc(S(C)(=O)=O)c1 (racemic) [Compound 13, 1-(6,7-difluoro-1H-indol-3-yl)-2-(4-fluoro-2-methoxyphenyl)-2-((3-methoxy-5-(methylsulfonyl)phenyl)amino)ethanone]	1.4	7600	
COc1cc(NC(C(=O)c2c[nH]c3c(C)c(Cl)ccc23)c2ccc(F)cc2OC)cc(S(C)(=O)=O)c1 (racemic) [Compound 3, 1-(6-chloro-7-methyl-1H-indol-3-yl)-2-(4-fluoro-2-methoxyphenyl)-2-((3-methoxy-5-(methylsulfonyl)phenyl)amino)ethanone]	0.58	7200	
COc1cc(NC(C(=O)c2c[nH]c3cc(C)c(F)cc23)c2ccc(F)cc2OC)cc(S(C)(=O)=O)c1 (racemic) [Compound 9, 2-(4-fluoro-2-methoxyphenyl)-1-(5-fluoro-6-methyl-1H-indol-3-yl)-2-((3-methoxy-5-(methylsulfonyl)phenyl)amino)ethanone]	1.6	8800	
COc1cc(NC(C(=O)c2c[nH]c3cc(OC)ccc23)c2ccc(F)cc2OC)cc(S(C)(=O)=O)c1 (racemic) [Compound 5, 2-(4-fluoro-2-methoxyphenyl)-1-(6-methoxy-1H-indol-3-yl)-2-((3-methoxy-5-(methylsulfonyl)phenyl)amino)ethanone]	2	24000	
COc1cc(NC(C(=O)c2c[nH]c3cc(OC)c(C)cc23)c2ccc(F)cc2OC)cc(S(C)(=O)=O)c1 (racemic) [Compound 10, 2-(4-fluoro-2-methoxyphenyl)-2-((3-methoxy-5-(methylsulfonyl)phenyl)amino)-1-(6-methoxy-5-methyl-1H-indol-3-yl)ethanone]	1.1	7800	
COc1cc(NC(C(=O)c2c[nH]c3c(C)c(F)ccc23)c2ccc(F)cc2OC)cc(S(C)(=O)=O)c1 (racemic) [Compound 2, 2-(4-fluoro-2-methoxyphenyl)-1-(6-fluoro-7-methyl-1H-indol-3-yl)-2-((3-methoxy-5-(methylsulfonyl)phenyl)amino)ethanone]	1.3	8000	
